# Source: paper PMC11845477, “Exploring the principles behind antibiotics with limited resistance” (Nature Communications, 2025)
# Where a SMILES comes first, the peptide text is derived from it. Bridges are numbered along the chain shown (N, C = ends). [ ]: non-standard residue; d: D form. The star is where a group is joined. X2 = CC[C@H](C)CCCCC(=O)*; Dab = NCC[C@H](N)C(=O)O
# Test system: A. baumannii ATCC 17978 (SEN) and A. baumannii ATCC BAA-1605 (MDR)
# Experiment: Adaptive laboratory evolution (ALE), relative MIC of evolved lines
# Assay type: cell-based, Acinetobacter baumannii
# Excerpt: Using the same set of bacterial strains, we initiated adaptive laboratory evolution with the aim to maximize the level of antibiotic resistance in the populations achieved during a longer, but fixed time period.
# An established protocol for adaptive laboratory evolution[46],[73] was followed to propagate populations with the highest resistance levels. Starting with an antibiotic concentration that caused approximately 50% growth inhibition, ten parallel populations for each antibiotic-ancestor strain combination were grown for 72 hours at 37 °C with continuous shaking (300 RPM). MHB broth medium was used unless stated otherwise. After each incubation, 20 µl of each culture was transferred to four new wells containing fresh medium with increasing antibiotic concentrations (0.5×, 1×, 1.5×, and 2.5× the previous concentration) in a chessboard layout to monitor potential cross-contamination. Growth was monitored by measuring OD600 using a Biotek Synergy 2 microplate reader, and only populations grown in the highest drug concentration with an OD600 > 0.2 were transferred further.
# A robotic liquid handling system was used to automatically prepare a 11 to 16-step serial dilution in 384-well microtiter plates (Greiner). A final concentration of 5 × 10^5 bacterial cells per mL were inoculated into each well containing 60 µL MHB medium. Bacterial cultures were incubated at 37 °C with continuous shaking (Infors shaker, 900 rpm with 3 mm throw) for 18 hours (2 replicates from each). Cell growth was monitored by measuring the optical density (OD600 values, using Biotek Synergy microplate reader). MIC was defined as the antibiotic concentration of complete growth inhibition (i.e., OD600 < 0.05). Relative MIC was calculated as follows:1 relativeMIC=MICevolved/MICancestor […]
# Supplementary Figure 4. Resistance levels following adaptive laboratory evolution across bacterial strains. The level of resistance was measured as the fold change in relative MIC between evolved and ancestral strains after ~60 days of adaptive laboratory evolution. Data are grouped by bacterial strain (A. baumannii (AB), E. coli (EC), K. pneumoniae (KP), and P. aeruginosa (PA)) and categorized as either multidrug-resistant (MDR) or sensitive (SEN). Each data point represents a laboratory evolved line, and boxplots show the median, first and third quartiles, with whiskers indicating the 5th and 95th percentiles.
# Statistical analysis was performed using two-sided Dunn’s post-hoc test with Benjamini-Hochberg correction for multiple comparisons (****/ ***/ **/ * indicates p < 0.0001/ 0.001/ 0.01/ 0.05). For detailed information on antibiotic and bacterial species, see Supplementary Table 1. For mode of action groups, refer to Table 1. Source data are provided as a Source Data file.
compound,measurement,setting,value
CN[C@@H]1[C@@H](O[C@H]2O[C@H](CO)[C@@H](N)[C@H](O)[C@H]2O)OC2C[C@@H](N)[C@@H](O[C@H]3[C@H](O)[C@@H](O)[C@H](N)C[C@@H]3N)OC2[C@@H]1O (stereo partly drawn) [Apramycin],Relative MIC,"AB-SEN (ATCC 17978), evolved line 1, MIC of evolved line / MIC of ancestor",32
same,Relative MIC,"AB-SEN (ATCC 17978), evolved line 2, MIC of evolved line / MIC of ancestor",64
same,Relative MIC,"AB-SEN (ATCC 17978), evolved line 3, MIC of evolved line / MIC of ancestor",32
same,Relative MIC,"AB-SEN (ATCC 17978), evolved line 4, MIC of evolved line / MIC of ancestor",16
same,Relative MIC,"AB-SEN (ATCC 17978), evolved line 5, MIC of evolved line / MIC of ancestor",32
same,Relative MIC,"AB-SEN (ATCC 17978), evolved line 6, MIC of evolved line / MIC of ancestor",16
same,Relative MIC,"AB-SEN (ATCC 17978), evolved line 7, MIC of evolved line / MIC of ancestor",64
same,Relative MIC,"AB-SEN (ATCC 17978), evolved line 8, MIC of evolved line / MIC of ancestor",32
same,Relative MIC,"AB-SEN (ATCC 17978), evolved line 9, MIC of evolved line / MIC of ancestor",32
same,Relative MIC,"AB-SEN (ATCC 17978), evolved line 10, MIC of evolved line / MIC of ancestor",32
same,Relative MIC (log10),"AB-SEN (Acinetobacter baumannii ATCC 17978), evolved line 2 adapted to the named antibiotic",1.806
same,Relative MIC (log10),"AB-SEN (Acinetobacter baumannii ATCC 17978), evolved line 3 adapted to the named antibiotic",1.505
same,Relative MIC (log10),"AB-SEN (Acinetobacter baumannii ATCC 17978), evolved line 6 adapted to the named antibiotic",1.204
same,Relative MIC (log10),"AB-SEN (Acinetobacter baumannii ATCC 17978), evolved line 9 adapted to the named antibiotic",1.505
same,Relative MIC (log10),"AB-SEN (Acinetobacter baumannii ATCC 17978), evolved line 10 adapted to the named antibiotic",1.505
same,Relative MIC,"Acinetobacter baumannii ATCC 17978 (AB-SEN), evolved line 1",32
same,Relative MIC,"Acinetobacter baumannii ATCC 17978 (AB-SEN), evolved line 2",64
same,Relative MIC,"Acinetobacter baumannii ATCC 17978 (AB-SEN), evolved line 3",32
same,Relative MIC,"Acinetobacter baumannii ATCC 17978 (AB-SEN), evolved line 4",16
same,Relative MIC,"Acinetobacter baumannii ATCC 17978 (AB-SEN), evolved line 5",32
same,Relative MIC,"Acinetobacter baumannii ATCC 17978 (AB-SEN), evolved line 6",16
same,Relative MIC,"Acinetobacter baumannii ATCC 17978 (AB-SEN), evolved line 7",64
same,Relative MIC,"Acinetobacter baumannii ATCC 17978 (AB-SEN), evolved line 8",32
same,Relative MIC,"Acinetobacter baumannii ATCC 17978 (AB-SEN), evolved line 9",32
same,Relative MIC,"Acinetobacter baumannii ATCC 17978 (AB-SEN), evolved line 10",32
CC[C@H](C)CCCCC(=O)N[C@@H](CCN)C(=O)N[C@H](C(=O)N[C@@H](CCN)C(=O)N[C@H]1CCNC(=O)[C@H]([C@@H](C)O)NC(=O)[C@H](CCN)NC(=O)[C@H](CCN)NC(=O)[C@H](CC(C)C)NC(=O)[C@@H](Cc2ccccc2)NC(=O)[C@H](CCN)NC1=O)[C@@H](C)O [Polymyxin B] (X2-[Dab]T[Dab][Dab][Dab][dF]L[Dab][Dab]T; lactam 4-C (inferred); N-terminus assumed),Relative MIC (log10),"AB-MDR (Acinetobacter baumannii ATCC BAA 1605), evolved line 4",3.0103 log10
same,Relative MIC (log10),"AB-MDR (Acinetobacter baumannii ATCC BAA 1605), evolved line 5",3.0103 log10
same,Relative MIC (log10),"AB-MDR (Acinetobacter baumannii ATCC BAA 1605), evolved line 6",3.0103 log10
same,Relative MIC (log10),"AB-MDR (Acinetobacter baumannii ATCC BAA 1605), evolved line 7",3.0103 log10
same,Relative MIC (log10),"AB-MDR (Acinetobacter baumannii ATCC BAA 1605), evolved line 9",3.0103 log10
same,Relative MIC (log10),"AB-SEN (Acinetobacter baumannii ATCC 17978), evolved line 1",2.709 log10
same,Relative MIC (log10),"AB-SEN (Acinetobacter baumannii ATCC 17978), evolved line 2",2.709 log10
same,Relative MIC (log10),"AB-SEN (Acinetobacter baumannii ATCC 17978), evolved line 4",2.709 log10
same,Relative MIC (log10),"AB-SEN (Acinetobacter baumannii ATCC 17978), evolved line 6",2.709 log10
same,Relative MIC (log10),"AB-SEN (Acinetobacter baumannii ATCC 17978), evolved line 9",2.408 log10
POL7306,Relative MIC,"ALE, Acinetobacter baumannii ATCC 17978 (AB-SEN), evolved line 1",256
same,Relative MIC,"ALE, Acinetobacter baumannii ATCC 17978 (AB-SEN), evolved line 2",32
same,Relative MIC,"ALE, Acinetobacter baumannii ATCC 17978 (AB-SEN), evolved line 3",16
same,Relative MIC,"ALE, Acinetobacter baumannii ATCC 17978 (AB-SEN), evolved line 4",2
same,Relative MIC,"ALE, Acinetobacter baumannii ATCC 17978 (AB-SEN), evolved line 6",32
same,Relative MIC,"ALE, Acinetobacter baumannii ATCC 17978 (AB-SEN), evolved line 7",2
same,Relative MIC,"ALE, Acinetobacter baumannii ATCC 17978 (AB-SEN), evolved line 8",2
same,Relative MIC,"ALE, Acinetobacter baumannii ATCC 17978 (AB-SEN), evolved line 9",256
same,Relative MIC,"ALE, Acinetobacter baumannii ATCC 17978 (AB-SEN), evolved line 10",32
same,Relative MIC,"ALE, Acinetobacter baumannii ATCC BAA 1605 (AB-MDR), evolved line 1",2
same,Relative MIC,"ALE, Acinetobacter baumannii ATCC BAA 1605 (AB-MDR), evolved line 2",16
same,Relative MIC,"ALE, Acinetobacter baumannii ATCC BAA 1605 (AB-MDR), evolved line 3",16
same,Relative MIC,"ALE, Acinetobacter baumannii ATCC BAA 1605 (AB-MDR), evolved line 4",16
same,Relative MIC,"ALE, Acinetobacter baumannii ATCC BAA 1605 (AB-MDR), evolved line 5",16
same,Relative MIC,"ALE, Acinetobacter baumannii ATCC BAA 1605 (AB-MDR), evolved line 6",2
same,Relative MIC,"ALE, Acinetobacter baumannii ATCC BAA 1605 (AB-MDR), evolved line 7",16
same,Relative MIC,"ALE, Acinetobacter baumannii ATCC BAA 1605 (AB-MDR), evolved line 8",8
same,Relative MIC,"ALE, Acinetobacter baumannii ATCC BAA 1605 (AB-MDR), evolved line 9",32
same,Relative MIC,"ALE, Acinetobacter baumannii ATCC BAA 1605 (AB-MDR), evolved line 10",16
